Data reported in patent US10858360B2, “Tricyclic gyrase inhibitors” (priority 2011, dated 2020).
Converted amounts (≈) assume the structure as drawn.

Experiments:
E. coli ATCC 25922 = assay: MIC, E. coli ATCC 25922; assay type: cell-based; settings: Alamar Blue read after overnight incubation at 35° C.; for MIC Ec: E. coli; for MIC: Escherichia coli, ATCC25922, E. coli
S. aureus ATCC 13709 = assay: MIC, S. aureus ATCC 13709 (Alamar Blue broth microdilution); assay type: cell-based; settings: Alamar Blue read after overnight incubation at 35° C.; for MIC Sa: S. aureus; for MIC: Staphylococcus aureus, ATCC13709, S. aureus

Structure (SMILES)	MIC Ec (E. coli ATCC 25922) [µg/mL]	MIC Sa (S. aureus ATCC 13709) [µg/mL]	MIC (E. coli ATCC 25922) [µg/mL]	MIC (S. aureus ATCC 13709) [µg/mL]
CNc1cc(F)cc2c1[nH]c1nc(Oc3cnc(C)nc3)nc(N3CC4CCC(N)CC4C3)c12 (stereo not drawn) [4.093]	4 (≈ 8.65 µM)	≤0.5		
CNc1cccc2c1[nH]c1nc(Oc3cncnc3)nc(N3CC4(CCNC4)C3)c12 [3.67]			64 (≈ 159 µM)	16 (≈ 39.8 µM)
CNc1ncnc2c1[nH]c1nc(-c3cncnc3)nc(N3CC4C(N)C4C3)c12 (stereo not drawn) [7.11]			> 64	> 64
CNc1cccc2c1[nH]c1nc(Sc3cnc4ccc[n+]([O-])c4c3)nc(N3CCC[C@@H](N)C3)c12 [1.34]			4 (≈ 8.46 µM)	1 (≈ 2.12 µM)
CNc1cc(F)cc2c1[nH]c1nc(Oc3cnc(C)nc3)nc(N3C4CCC3C(N)C4)c12 (stereo not drawn) [4.095]	8 (≈ 18.4 µM)	2 (≈ 4.6 µM)		
CNc1ncnc2c1[nH]c1nc(Oc3cnc(C)nc3)nc(N3CCC4(CC4N)C3)c12 (stereo not drawn) [7.09]			> 64	8 (≈ 19.1 µM)
CNc1cc(F)cc2c1[nH]c1nc(Oc3cncc(C#N)c3)nc(N3CC(N)C4(CC4)C3)c12 (stereo not drawn) [4.051]			2 (≈ 4.5 µM)	≤ 0.5
CNc1cc(F)cc2c1[nH]c1nc(Oc3ccnnc3)nc(N3CC(N)C4(CC4)C3)c12 (stereo not drawn) [4.230]	>16	32 (≈ 76.1 µM)		
CNc1cccc2c1[nH]c1nc(Oc3cncnc3)nc(-c3cn[nH]c3)c12 [3.9]			32 (≈ 89.3 µM)	2 (≈ 5.58 µM)
CNc1cc(F)cc2c1[nH]c1nc(Oc3cnc(C)nc3)nc(-c3ccc(Cl)c(N)c3)c12 [4.419]			> 16	≤ 0.5
CNc1cc(F)cc2c1[nH]c1nc(Oc3cnc(C)nc3)nc(-c3ccc(F)cc3CN)c12 [4.420]			> 16	2 (≈ 4.47 µM)
CNc1cc(F)cc2c1[nH]c1nc(Oc3cnc(C)nc3)nc(N3CC(N)C(C(=O)NCC(C)O)C3)c12 (stereo not drawn) [4.439]			> 16	8 (≈ 15.7 µM)
CNc1cc(F)cc2c1[nH]c1nc(Oc3cnc(CO)nc3)nc(N3CC4CC(N)C4C3)c12 (stereo not drawn) [4.386]			≤ 0.5	≤ 0.5
CNc1cc(F)cc2c1[nH]c1nc(Oc3cnc(N(C)C)nc3)nc(N3CCC(N)C3)c12 (stereo not drawn) [4.207]	≤0.5	≤0.5		
CNc1cc(F)cc2c1[nH]c1nc(Oc3cncc(SC)c3)nc(N3CC4C[C@@H](N)C4C3)c12 (stereo partly drawn) [4.355]			≤ 0.5	≤ 0.5
CCc1ncc(Oc2nc(N3C[C@H](N)C4(CC4)C3)c3c(n2)[nH]c2c(NC)cc(F)cc23)cn1 [4.259]			≤ 0.5	≤ 0.5
COc1cccc2c1[nH]c1nc(Sc3cnc4nccnc4c3)nc(N3CC4C(N)C4C3)c12 (stereo not drawn) [1.76]			> 64	1 (≈ 2.19 µM)
CNc1cc(F)c(F)c2c1[nH]c1nc(Oc3cnc(C)nc3)nc(N3CC(N)C3)c12 [5.06]	≤0.5	≤0.5		
CNc1cccc2c1[nH]c1nc(Oc3cncnc3)nc(N3CCC(N)CC3)c12 [3.64]			64 (≈ 164 µM)	16 (≈ 41 µM)
CNc1cccc2c1[nH]c1nc(Oc3cncc(F)c3)nc(N3CC4CNC4C3)c12 (stereo not drawn) [3.7]			4 (≈ 9.87 µM)	1 (≈ 2.47 µM)
CNc1cc(F)cc2c1[nH]c1nc(Oc3cnc(C)nc3)nc(N3CC4CNCCC43)c12 (stereo not drawn) [4.082]	8 (≈ 18.4 µM)	1 (≈ 2.3 µM)		

Structure (SMILES)	MIC Ec (E. coli ATCC 25922) [µg/mL]	MIC Sa (S. aureus ATCC 13709) [µg/mL]	MIC (E. coli ATCC 25922) [µg/mL]	MIC (S. aureus ATCC 13709) [µg/mL]
CNc1cc(F)cc2c1[nH]c1nc(Oc3cnc4c(c3)ncn4C3CC3)nc(N3CC(N)C3)c12 [4.364]	4 (≈ 8.71 µM)	≤0.5		
CNc1cccc2c1[nH]c1nc(Sc3cnc4cccnc4c3)nc(N3CCC4(CC4N)C3)c12 (stereo not drawn) [1.26]	1 (≈ 2.13 µM)	≤0.5		
CNc1cccc2c1[nH]c1nc(Sc3cnc4ccc[n+]([O-])c4c3)nc(N3C[C@@H]4[C@H](C3)[C@@]4(N)C(N)=O)c12 [1.19]			> 64	> 64
CNc1cc(F)cc2c1[nH]c1nc(Oc3cnc(C4CC4)nc3)nc(N3CC4CCNC3C4)c12 (stereo not drawn) [4.248]			≤ 0.5	≤ 0.5
CNc1cc(F)cc2c1[nH]c1nc(Oc3cnc(N)nc3)nc(N3CC4C(N)CC4(C)C3)c12 (mixture of isomers) [4.192]	4	≤0.5		
CNc1cc(F)cc2c1[nH]c1nc(Oc3cnc(C)nc3)nc(N3CC(NC(=O)C(N)CO)C4(CC4)C3)c12 (stereo not drawn) [4.124]	8 (≈ 15.3 µM)	≤0.5		
CNc1cc(F)cc2c1[nH]c1nc(Oc3cnc(C)nc3)nc(N3CCC(C)(N)CC3)c12 [4.135]	1 (≈ 2.29 µM)	≤0.5		
CNc1cc(F)cc2c1[nH]c1nc(Oc3ccc4c(c3)C(=O)NC4)nc(N3CC4CCNC4C3)c12 (stereo not drawn) [4.269]	4 (≈ 8.45 µM)	≤0.5		
CNc1cc(F)cc2c1[nH]c1nc(Oc3ccc4oc(C)nc4c3)nc(N3C[C@H]4CC[C@@H](N)[C@H]4C3)c12 [4.336]			1 (≈ 2.05 µM)	≤ 0.5
CNc1cc(F)cc2c1[nH]c1nc(Oc3cnc(N)nc3)nc(N3CC4C[C@@H](N)C4C3)c12 (stereo partly drawn) [4.190]			1 (≈ 2.3 µM)	≤ 0.5
COc1cccc2c1[nH]c1nc(Oc3cncc(C#N)c3)nc(N3CC4C(N)C4C3)c12 (stereo not drawn) [2.15]	>32	1 (≈ 2.42 µM)		
CNc1cc(F)cc2c1[nH]c1nc(Oc3cnc(C)nc3)nc(N3CC4CCCC(N)C4C3)c12 (stereo not drawn) [4.086]	2 (≈ 4.32 µM)	≤0.5		
CNc1cc(F)c(F)c2c1[nH]c1nc(Oc3cnc(C)nc3)nc(N3CC4(CCC4N)C3)c12 (stereo not drawn) [5.1]	≤0.5	≤0.5		
CNc1cc(F)cc2c1[nH]c1nc(Oc3cnc(N4CCOCC4)nc3)nc(N3CCC(CN)C3)c12 (stereo not drawn) [4.215]			4 (≈ 8.1 µM)	≤ 0.5
CNc1cc(F)c(F)c2c1[nH]c1nc(Oc3cnc(N)nc3)nc(N3CC4(CCC4N)C3)c12 (stereo not drawn) [5.07]	1 (≈ 2.21 µM)	≤0.5		
CNc1cc(F)cc2c1[nH]c1nc(Oc3cnc(Cl)nc3)nc(N3CC4CC(N)C4C3)c12 (stereo not drawn) [4.378]	≤0.5	≤0.5		
CNc1cc(F)cc2c1[nH]c1nc(Oc3cncc(C#N)c3)nc(N3CC4CC(N)C4C3)c12 (stereo not drawn) [4.053]	≤0.5	≤0.5		
CNc1cc(F)cc2c1[nH]c1nc(Oc3cnc(C)nc3)nc(-c3cncc(F)c3)c12 [4.417]			1 (≈ 2.38 µM)	≤ 0.5
CNc1cc(F)cc2c1[nH]c1nc(Oc3cnc(C)nc3)nc(N3CC4CCC(N)C4C3)c12 (stereo not drawn) [4.075]	≤0.5	≤0.5		
CNc1cc(F)cc2c1[nH]c1nc(Sc3cnc4cccnc4c3)nc(N3CC4C(N)C4C3)c12 (stereo not drawn) [1.51]			≤ 0.5	≤ 0.5
CNc1cc(F)cc2c1[nH]c1nc(Oc3cncc(OC)c3)nc(N3C[C@H](N)C4(CC4)C3)c12 [4.165]			1 (≈ 2.22 µM)	≤ 0.5

Structure (SMILES)	MIC Ec (E. coli ATCC 25922) [µg/mL]	MIC Sa (S. aureus ATCC 13709) [µg/mL]	MIC (E. coli ATCC 25922) [µg/mL]	MIC (S. aureus ATCC 13709) [µg/mL]
CNc1cc(F)cc2c1[nH]c1nc(Oc3cnc(C)nc3)nc(N3CC4CONC4C3)c12 (stereo not drawn) [4.122]	1 (≈ 2.29 µM)	≤0.5		
CNc1cc(F)cc2c1[nH]c1nc(Oc3cnc(N4CCOCC4)nc3)nc(N3CC4C(N)C4C3)c12 (stereo not drawn) [4.211]	>16	16 (≈ 32.6 µM)		
CNc1cc(F)c(F)c2c1[nH]c1nc(Oc3cncnc3)nc(N3CC(N)C4(CC4)C3)c12 (stereo not drawn) [5.09]	≤0.5	≤0.5		
CNc1cc(F)cc2c1[nH]c1nc(Oc3cncc(F)c3)nc(N3CC(N)C4(CC4)C3)c12 (stereo not drawn) [4.056]			≤ 0.5	≤ 0.5
CNc1cc(F)cc2c1[nH]c1nc(Oc3cnc(C)nc3)nc(-c3cn[nH]c3)c12 [4.418]			1 (≈ 2.56 µM)	≤ 0.5
CNc1cc(F)cc2c1[nH]c1nc(Oc3ccc4nc5n(c(=O)c4c3)CCC5)nc(N3CC4(CCC4N)C3)c12 (stereo not drawn) [4.377]	16 (≈ 30.4 µM)	4 (≈ 7.6 µM)		
CNc1cc(F)cc2c1[nH]c1nc(Oc3cc(O)cc4oc(=O)cc(C)c34)nc(N3CC4CC(N)C4C3)c12 (stereo not drawn) [4.383]	>16	4 (≈ 7.74 µM)		
CNc1cccc2c1[nH]c1nc(Sc3cnc4cccnc4c3)nc(N3CC4CNC(C4)C3)c12 (stereo not drawn) [1.47]			2 (≈ 4.27 µM)	≤ 0.5
COc1nccc2c1[nH]c1nc(Sc3cnc4cccnc4c3)nc(N3CC4C(N)C4C3)c12 (stereo not drawn) [7.03]			> 64	2 (≈ 4.38 µM)
CNc1cccc2c1[nH]c1nc(Sc3cnc4ccc[n+]([O-])c4c3)nc(N3CC(N)C4(CC4)C3)c12 (stereo not drawn) [1.40]			1 (≈ 2.06 µM)	≤ 0.5
CNc1cc(F)cc2c1[nH]c1nc(Oc3cnc4c(c3)C(=O)N(C)C4)nc(N3CC4C[C@@H](N)C4C3)c12 (stereo partly drawn) [4.359]			≤ 0.5	≤ 0.5
CCOC(=O)c1ncc(Oc2nc(N3CC4CC3C[C@@H]4N)c3c(n2)[nH]c2c(NC)cc(F)cc23)cn1 (stereo partly drawn) [4.400]			≤ 0.5	≤ 0.5
CNc1cc(F)cc2c1[nH]c1nc(Oc3cnc(N4CC(C)(N)C4)nc3)nc(N3C[C@H](N)C4(CC4)C3)c12 [4.340]	2 (≈ 3.96 µM)	1 (≈ 1.98 µM)		
CNc1cc(F)cc2c1[nH]c1nc(Oc3cncnc3)nc(N3C[C@@H]4[C@H](C3)[C@@]4(N)C(N)=O)c12 [4.009]			> 64	≤ 0.5
CNc1cccc2c1[nH]c1nc(Oc3ccc[n+]([O-])c3)nc(N3CC4C(N)C4C3)c12 (stereo not drawn) [3.30]			16 (≈ 39.7 µM)	16 (≈ 39.7 µM)
CNc1cc(F)cc2c1[nH]c1nc(Oc3cncc(-c4nnnn4C)c3)nc(N3CC4CNC(C4)C3)c12 (stereo not drawn) [4.170]			> 16	2 (≈ 3.99 µM)
CNc1cc(F)cc2c1[nH]c1nc(Oc3cnc(N)nc3)nc(N3C[C@H]4CC3C[C@H]4N)c12 [4.191]			2 (≈ 4.59 µM)	≤ 0.5
CNc1cc(F)cc2c1[nH]c1nc(Oc3cncnc3)nc(N3CCC4(CCNC4)C3)c12 (stereo not drawn) [4.033]			4 (≈ 9.21 µM)	≤ 0.5
CNc1cc(F)cc2c1[nH]c1nc(Oc3cnc(C)nc3)nc(N3CCCC(N)CC3)c12 (stereo not drawn) [4.071]			2 (≈ 4.58 µM)	≤ 0.5
CNc1cc(F)cc2c1[nH]c1nc(Oc3cnc(N)nc3)nc(N3CCC(CN)C3)c12 (stereo not drawn) [4.176]			1 (≈ 2.36 µM)	≤ 0.5
CNc1cc(F)cc2c1[nH]c1nc(Oc3cnc(C)nc3)nc(N3CCC(C4(N)CC4)C3)c12 (stereo not drawn) [4.083]	≤0.5	≤0.5		
